Activity calls are given as the source filed them.
Experiments:
P388/ADR = test: cells; assay type: functional; details: Mus musculus
SN12K1 = test: cells; assay type: functional; details: Homo sapiens
P388 = test: cells; assay type: functional; details: Mus musculus
[1] = target: T1, Corticotropin-releasing factor receptor 2/Corticotropin-releasing factor-binding protein (Homo sapiens, UniProt P24387+Q13324); test: Dose Response confirmation of uHTS hits for small molecule antagonists of the CRF-binding protein and CRF-R2 receptor complex.; assay type: functional; details: read-out: IC50_Mean
T1 sequence (Q13324 whole entry): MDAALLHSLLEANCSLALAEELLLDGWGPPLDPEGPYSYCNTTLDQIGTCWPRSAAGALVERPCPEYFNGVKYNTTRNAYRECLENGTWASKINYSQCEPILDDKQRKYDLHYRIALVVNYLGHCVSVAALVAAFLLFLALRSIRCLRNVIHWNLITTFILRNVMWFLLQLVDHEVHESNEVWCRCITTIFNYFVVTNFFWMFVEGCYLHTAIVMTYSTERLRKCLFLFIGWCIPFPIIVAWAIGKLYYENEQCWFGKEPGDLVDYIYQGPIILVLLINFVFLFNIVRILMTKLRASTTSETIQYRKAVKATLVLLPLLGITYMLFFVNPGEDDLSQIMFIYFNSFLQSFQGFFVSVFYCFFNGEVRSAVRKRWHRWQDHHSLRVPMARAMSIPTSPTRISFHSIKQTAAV
T1 sequence (P24387 whole entry): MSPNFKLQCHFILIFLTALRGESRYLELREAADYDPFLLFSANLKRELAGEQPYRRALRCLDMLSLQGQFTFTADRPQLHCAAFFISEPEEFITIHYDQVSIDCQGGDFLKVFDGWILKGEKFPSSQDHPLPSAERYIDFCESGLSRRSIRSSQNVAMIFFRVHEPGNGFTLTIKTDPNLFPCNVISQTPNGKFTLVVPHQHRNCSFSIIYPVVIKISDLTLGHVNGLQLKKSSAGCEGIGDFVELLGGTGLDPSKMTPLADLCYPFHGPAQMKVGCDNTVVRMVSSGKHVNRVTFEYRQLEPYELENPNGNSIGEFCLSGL

[2] = target: T1, Corticotropin-releasing factor receptor 2/Corticotropin-releasing factor-binding protein; test: activators of CRF receptor 2 with binding protein – uHTS hits, confirmation (AID 602473); assay type: functional; details: read-out: EC50_Mean
[3] = NIH-3T3 fibroblast cytotoxicity, dose response, cytotoxicity control, cell-based, fluorescence, Alamar Blue, secondary assay (AID 2327); assay type: functional;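 further: NIH-3T3 mouse fibroblasts cultured with fluconazole at 8 µg/mL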
[4] = C. albicans growth with fluconazole, confirmation, fluorescence, retest (AID 2467); assay type: functional, cell-based
[5] = Luminescence Cell-Based Dose Retest to Confirm Inhibitors of Cancer Stem Cells. [Related pubchem assays (depositor defined):AID2717, AID2721]; assay type: functional; details: Homo sapiens
[6] = target: Heat shock protein HSP 90-alpha (Homo sapiens, UniProt P07900); assay type: functional, organism-based
[7] = target: T2, High affinity choline transporter 1 (Homo sapiens, UniProt Q9GZV3); test: CHT inhibitors, dose response, cell-based, 5-point CRC, membrane potential dye (AID 504840); assay type: functional
T2 sequence (Q9GZV3 whole entry): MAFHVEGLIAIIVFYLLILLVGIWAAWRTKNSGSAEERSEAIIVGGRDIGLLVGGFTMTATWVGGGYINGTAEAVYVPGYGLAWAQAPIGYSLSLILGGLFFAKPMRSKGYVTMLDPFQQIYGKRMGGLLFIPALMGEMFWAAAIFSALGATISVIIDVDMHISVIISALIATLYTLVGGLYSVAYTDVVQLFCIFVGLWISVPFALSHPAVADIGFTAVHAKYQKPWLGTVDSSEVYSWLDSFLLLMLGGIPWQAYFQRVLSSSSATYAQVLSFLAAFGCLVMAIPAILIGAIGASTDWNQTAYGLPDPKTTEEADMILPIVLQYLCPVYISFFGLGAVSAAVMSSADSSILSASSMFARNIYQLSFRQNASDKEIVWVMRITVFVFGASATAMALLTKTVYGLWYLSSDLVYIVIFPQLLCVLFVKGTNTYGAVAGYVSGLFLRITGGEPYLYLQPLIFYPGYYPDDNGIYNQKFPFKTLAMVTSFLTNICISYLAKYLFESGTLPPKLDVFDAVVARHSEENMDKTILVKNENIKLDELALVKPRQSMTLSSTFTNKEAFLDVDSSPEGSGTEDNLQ

[8] = system: Streptococcus sp. 'group A'; test: growth inhibition of control SK(-) GAS strain, dose response, counter-screen for streptokinase expression inhibitor project, luminescence, kanamycin, BacTiterGlo, confirmation (AID 1900); assay type: functional, organism-based
Streptococcus = test: Group A Streptococcus viability loss, dose response, counter-screen for streptokinase expression inhibitor project, luminescence, BacTiterGlo (AID 1915); assay type: functional, organism-based;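 further: potency for reduction of bacterial viability or growth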
INS1 = test: beta cell apoptosis inhibitors, cytokine rescue, dose response, luminescence, retest (AID 449756); assay type: functional, cell-based; details: Rattus norvegicus;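 further: cell death triggered by IL-1 beta plus TNF-alpha plus IFN-gamma mixture; protective hits raise ATP signal compared with cytokine alone wells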
[9] = target: T3, Polyadenylate-binding protein 1 (Homo sapiens, UniProt P11940); test: PABP1 MLLE–PAM2 interaction inhibitors, dose response, miRNA deadenylation inhibitor project, biochemical, fluorescence polarization, Cy5-PAM2 peptide, secondary (AID 602260); assay type: functional; details: read-out: IC50_Mean
[10] = target: T3, Polyadenylate-binding protein 1; test: PABP1 MLLE–PAM2 binding inhibitor potency, dose response, biochemical, fluorescence polarization, FITC-PAM2 peptide (AID 602259); assay type: functional; details: read-out: IC50_Mean
Cytochrome P450 1A2 = target: T4, Cytochrome P450 1A2 (Homo sapiens, UniProt P05177);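 further: PubChem cytochrome P450 panel assay, CYP1A2 panel member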
T4 sequence (P05177 whole entry): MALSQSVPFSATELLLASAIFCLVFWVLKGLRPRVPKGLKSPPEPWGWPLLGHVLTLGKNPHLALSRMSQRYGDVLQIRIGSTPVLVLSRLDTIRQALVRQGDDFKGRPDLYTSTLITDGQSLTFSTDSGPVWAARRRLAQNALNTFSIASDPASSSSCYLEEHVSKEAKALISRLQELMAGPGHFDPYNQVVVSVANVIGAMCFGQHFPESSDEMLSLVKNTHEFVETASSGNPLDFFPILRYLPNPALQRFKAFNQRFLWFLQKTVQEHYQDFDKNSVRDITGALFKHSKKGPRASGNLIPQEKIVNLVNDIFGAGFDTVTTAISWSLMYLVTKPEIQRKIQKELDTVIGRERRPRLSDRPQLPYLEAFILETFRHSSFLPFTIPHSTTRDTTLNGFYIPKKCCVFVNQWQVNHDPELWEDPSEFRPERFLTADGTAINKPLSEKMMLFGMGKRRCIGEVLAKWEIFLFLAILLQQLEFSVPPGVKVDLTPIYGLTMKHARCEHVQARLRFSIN

Cytochrome P450 2C9 = Cytochrome P450 2C9 (Homo sapiens, UniProt P11712)
Cytochrome P450 2D6 = Cytochrome P450 2D6 (Homo sapiens, UniProt P10635);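 further: CYP2D6 member of a cytochrome P450 panel assay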
Cytochrome P450 2D6, sequence (P10635 whole entry): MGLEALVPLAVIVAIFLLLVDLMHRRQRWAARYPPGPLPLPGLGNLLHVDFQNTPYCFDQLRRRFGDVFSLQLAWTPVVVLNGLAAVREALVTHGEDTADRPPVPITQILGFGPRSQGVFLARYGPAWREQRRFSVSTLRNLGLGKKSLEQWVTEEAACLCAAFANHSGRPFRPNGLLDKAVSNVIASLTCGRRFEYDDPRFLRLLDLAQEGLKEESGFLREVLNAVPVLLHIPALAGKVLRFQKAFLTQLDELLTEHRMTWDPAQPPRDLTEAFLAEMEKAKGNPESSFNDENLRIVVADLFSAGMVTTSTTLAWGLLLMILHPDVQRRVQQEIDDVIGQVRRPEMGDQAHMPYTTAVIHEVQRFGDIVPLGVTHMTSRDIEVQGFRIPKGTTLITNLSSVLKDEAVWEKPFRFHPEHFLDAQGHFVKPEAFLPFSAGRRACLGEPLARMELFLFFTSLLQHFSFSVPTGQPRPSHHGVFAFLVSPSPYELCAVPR

Cytochrome P450 2C9, sequence (P11712 whole entry): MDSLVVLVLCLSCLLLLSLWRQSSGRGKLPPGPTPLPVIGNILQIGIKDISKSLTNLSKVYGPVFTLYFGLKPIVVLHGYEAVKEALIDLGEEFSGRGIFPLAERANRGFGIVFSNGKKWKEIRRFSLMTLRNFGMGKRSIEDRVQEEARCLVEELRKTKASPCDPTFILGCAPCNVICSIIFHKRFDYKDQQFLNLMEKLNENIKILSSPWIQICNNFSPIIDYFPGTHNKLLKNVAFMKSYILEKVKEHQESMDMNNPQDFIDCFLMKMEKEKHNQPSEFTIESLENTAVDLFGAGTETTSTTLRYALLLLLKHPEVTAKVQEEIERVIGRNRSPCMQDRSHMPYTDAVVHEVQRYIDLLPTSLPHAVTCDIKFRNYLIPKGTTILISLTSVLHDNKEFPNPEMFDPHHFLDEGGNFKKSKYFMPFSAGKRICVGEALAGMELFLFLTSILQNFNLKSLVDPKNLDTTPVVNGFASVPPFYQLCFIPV
T3 sequence (P11940 whole entry): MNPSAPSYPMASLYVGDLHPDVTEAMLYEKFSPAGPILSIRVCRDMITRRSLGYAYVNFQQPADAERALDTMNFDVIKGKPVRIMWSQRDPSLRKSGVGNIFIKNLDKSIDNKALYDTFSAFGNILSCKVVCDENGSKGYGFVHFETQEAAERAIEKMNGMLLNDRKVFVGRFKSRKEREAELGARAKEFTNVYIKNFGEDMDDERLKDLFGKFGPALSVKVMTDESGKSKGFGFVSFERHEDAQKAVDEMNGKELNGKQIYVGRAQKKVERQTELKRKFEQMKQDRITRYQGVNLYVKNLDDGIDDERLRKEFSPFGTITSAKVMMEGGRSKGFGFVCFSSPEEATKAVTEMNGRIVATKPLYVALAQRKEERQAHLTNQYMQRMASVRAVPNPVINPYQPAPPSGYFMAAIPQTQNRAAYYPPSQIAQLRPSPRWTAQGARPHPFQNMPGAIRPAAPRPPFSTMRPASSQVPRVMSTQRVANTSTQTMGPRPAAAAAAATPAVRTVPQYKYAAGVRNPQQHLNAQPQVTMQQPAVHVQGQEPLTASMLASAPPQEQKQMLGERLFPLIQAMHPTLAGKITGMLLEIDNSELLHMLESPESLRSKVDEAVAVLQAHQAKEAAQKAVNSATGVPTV

## CNC(=O)OCc1nc(SC(C)C)n(C)c1COC(=O)NC
P388/ADR
  GI50: 83.6 µM (inactive)
SN12K1
  GI50: > 100 µM (inactive)
P388
  GI50: 46.9 µM (inactive)

## COc1cc2c(cc1NC(=O)COC(=O)CNC(=O)c1ccccc1)oc1ccccc12
[1]
  IC50: > 47.1 µM (inactive)
[2]
  EC50: > 53 µM (inactive)

## O=c1oc2ccccc2c(O)c1Cc1cc(Cl)c2cccnc2c1O
[3]
  EC50: 76.3 µM (active)
[4]
  EC50: > 38 µM (not active)
[5]
  AC50: 1.09 µM (active)
[6]
  AC50: 7.2 µM (active)
[7]
  IC50: 15.2 µM (active)

## Cc1cc(N2CCN(C(=O)c3ccco3)CC2)n2ncc(-c3ccccc3)c2n1
[6]
  AC50: 2.23 µM (active)

## COc1ccc(CCn2c(=O)c3cccnc3n(Cc3cccc([N+](=O)[O-])c3)c2=O)cc1OC
[1]
  IC50: > 47.1 µM (inactive)
[2]
  EC50: > 53 µM (inactive)

## CN(C)/C=C/C(=O)c1ccc2noc(-c3cccc(F)c3)c2c1
[6]
  AC50: 7.95 µM (active)

## CCN1CCN(C(c2ccc(C(F)(F)F)cc2)c2ccc3cccnc3c2O)CC1 (stereo unspecified)
[8]
  EC50: 3.02 µM (active)
Streptococcus
  EC50: 3.5 µM (active)
[6]
  AC50: 1.36 µM (active)
INS1
  AC50: 2.15 µM (active)
[9]
  IC50: > 66 µM (inactive)
[10]
  IC50: > 66 µM (inactive)

## COc1ccccc1N1CCN(C(c2ccc(Cl)cc2)c2nnnn2C(C)(C)C)CC1 (stereo unspecified)
[1]
  IC50: > 47.1 µM (inactive)
[2]
  EC50: > 53 µM (inactive)

## CN1CCN(c2ncc3nc(-c4cc(F)cc(F)c4)c(=O)n(C)c3n2)CC1
Cytochrome P450 1A2
  AC50: 5.01 µM (inconclusive)
Cytochrome P450 2C9
  AC50: inconclusive

## Cc1cnc(CNc2ccnc(-c3cccnc3)n2)cn1
Cytochrome P450 2D6
  AC50: 25.1 µM (inconclusive)
Cytochrome P450 2C9
  AC50: inconclusive

From ChEMBL document CHEMBL1201862, “PubChem BioAssay data set” (2004)
